Laboratory results reported in patent US10626364B2, “Method for increasing the glutathione level in cells” (Merck Patent GmbH, priority 2015, dated 2020).

Experiments:
Assay type in all cases: cell-based
[1] = system: CHO suspension cell line; experiment: Bioreactor fed-batch experiment, IgG concentration in the supernatant (Cedex BioHT, turbidometric method); conditions: 15 mM SS in neutral pH main Feed-220, compared to standard (150 mM L-cysteine in separate alkaline feed); FIG. 1
Protocol: Bioreactor Fed-Batch Experiment in Cellvento® CHO 220 Medium and Feed 220 Using a CHO Suspension Cell Line in 1.2 L Glass Bioreactors.
15 mM S-sulfo-L-cysteine (SS) was integrated in the neutral pH main Feed-220 (n=5). Feed was added at 3% (v/v) at day 3 and 6% (v/v) at days 5, 7, 9 and 14. In the control condition, the feed without SS was added at the same ratios whereas 150 mM L-cysteine was added separately in an alkaline feed and added at following ratios 0.3% (v/v) at day 3 and 6% (v/v) at days 5, 7, 9, 14 (n=2). pH was controlled at 6.95+/−0.15. Dissolved oxygen concentration was controlled at 50% air saturation by sparging with pure oxygen and air via an open pipe sparger. Temperature was set at 37° C. and shifted from 37° C. to 33° C. on day 5 of culture. Agitation was maintained at 140 rpm. The IgG concentration in the supernatant was measured using the Cedex BioHT with a turbidometric method. It can be seen that the titer (IgG concentration) is higher with SS compared to standard.

[2] = system: CHO cells; experiment: Intracellular reactive species in fed-batch, Carboxy-H2DCFDA staining; conditions: 15 mM SSC condition vs control condition, FIG. 2
Protocol: Intracellular Reactive Species in CHO Cells in a Fed-Batch Using S-Sulfocysteine Vs the Control Process
Intracellular reactive species were quantified using 6-carboxy-2′,7′-dichlorodihydrofluorescein diacetate staining (Carboxy H2DCFDA, Life Technologies). The increase in fluorescence due to oxidative reactions was determined using a Perkin Elmer fluorescence reader. For these experiments, measurements were done during fed batch experiments comparing the control condition and 15 mM SSC condition. Samples were taken every day and analyzed immediately. Briefly, 3×10^5 cells were centrifuged (1200 rpm, 5 min) and either resuspended in PBS (negative control) or loaded with 50 μM Carboxy-H2DCFDA and incubated for 20 min at 37° C. and 1000 rpm. Cells were then centrifuged, resuspended in PBS and analyzed using the plate reader (n=3 for both conditions).

[3] = system: CHO cells; experiment: Intracellular total glutathione (GSH and GSSG) during fed-batch, UPLC; conditions: equivalent amounts of cysteine or S-sulfocysteine, compared to cells with cysteine
Protocol: Intracellular Total Glutathione in CHO Cells During a Fed-Batch Using S-Sulfocysteine Vs the Control Process
To quantify intracellular total glutathione, cells were washed three times in cold PBS and frozen at −20° C. for further analysis. To inhibit the activity of potential Cys-converting enzymes, 12×10^6 cells were lysed in 100 μl of phosphoSafe reagent (Merck Millipore) containing four phosphatase inhibitors: sodium fluoride, sodium vanadate, β-glycerophosphate and sodium pyrophosphate and supplemented with 20 mM iodoacetamide (alkylation of all enzyme containing one cysteine in the active site). The glutathione concentrations (GSH and GSSG) were determined via UPLC using a pre-column derivatization relying on AccQ Tag Ultra® reagent kit. Derivatization, chromatography and data analysis were carried out following the supplier recommendations (Waters, Milford, Mass.). Total glutathione was obtained by addition of GSH and GSSG and normalized to the concentration obtained in the control condition each day of the FB process.

`N[C@H](CSS(=O)(=O)O)C(=O)O` [S-sulfocysteine, (S)-2-amino-3-sulfosulfanylpropanoic acid] was tested, and the “titer (IgG concentration)” value [1] was “higher”, the “fluorescence intensity (intracellular reactive species)” value [2] was “lower fluorescence intensity” and the “amount of GSH in cells” value [3] was “higher amount of GSH”.
